Where two headings read alike, the source gives them in different places.
Experiments:
[1] = test system: CCD-19Lu (human lung fibroblast normal cell); experiment: MTT cell viability assay, normal cell; assay type: cell-based; conditions: 48-h treatment
Protocol: SUNE1 (nasopharyngeal carcinoma), AGS (gastric adenocarcinoma), HeLa (cervix adenocarcinoma), HepG2 (hepatocellular carcinoma), U-87 MG (human glioblastoma cell), U2OS (osteosarcoma), MCF-7 (breast adenocarcinoma), MDA-MB-231 (breast adenocarcinoma), HCT116 (colorectal carcinoma), SW480 (colorectal adenocarcinoma), NCI-H460 (large cell lung carcinoma), NCI-H1650 (adenocarcinoma lung carcinoma), HCC827 (adenocarcinoma lung carcinoma), A549 (lung carcinoma), and CCD-19Lu (human lung fibroblast normal cell) were all obtained from American Type Culture Collection (ATCC, Manassas, VA, USA). Minimum Essential Media (MEM, Gibco®, ThermoFisher Scientific), Dulbecco's Modified Eagle Medium (DMEM, Gibco®, ThermoFisher Scientific), and RPMI-1640 Medium (Gibco®, ThermoFisher Scientific) supplemented with 10% Fetal Bovine Serum (Gibco®, ThermoFisher Scientific), and 100 U/mL penicillin-streptomycin (Gibco™, ThermoFisher Scientific) were used for cell culture. Cells were placed into an incubator with 5% CO2 that temperature was set at 37° C. […]
The cell viability assay was performed by a typical MTT assay. […] The formed formazan was then dissolved with SDS solution (10% SDS in 10 mM HCl) and followed the determination of absorbance at 590 nm by a microplate reader. The change in cell viability was then calculated for each drug concentration, then normalized to control. […]

[2] = test system: AGS cell line; experiment: MTT cell viability assay; assay type: cell-based, human; conditions: Homo sapiens, AGS; MTT method, 48 h
Protocol: (§1) SUNE1 (nasopharyngeal carcinoma), AGS (gastric adenocarcinoma), HeLa (cervix adenocarcinoma), HepG2 (hepatocellular carcinoma), U-87 MG (human glioblastoma cell), U2OS (osteosarcoma), MCF-7 (breast adenocarcinoma), MDA-MB-231 (breast adenocarcinoma), HCT116 (colorectal carcinoma), SW480 (colorectal adenocarcinoma), NCI-H460 (large cell lung carcinoma), NCI-H1650 (adenocarcinoma lung carcinoma), HCC827 (adenocarcinoma lung carcinoma), A549 (lung carcinoma), and CCD-19Lu (human lung fibroblast normal cell) were all obtained from American Type Culture Collection (ATCC, Manassas, VA, USA). Minimum Essential Media (MEM, Gibco®, ThermoFisher Scientific), Dulbecco's Modified Eagle Medium (DMEM, Gibco®, ThermoFisher Scientific), and RPMI-1640 Medium (Gibco®, ThermoFisher Scientific) supplemented with 10% Fetal Bovine Serum (Gibco®, ThermoFisher Scientific), and 100 U/mL penicillin-streptomycin (Gibco™, ThermoFisher Scientific) were used for cell culture. Cells were placed into an incubator with 5% CO2 that temperature was set at 37° C. For subculturing cells, 0.05% Trypsin-EDTA (Gibco®) was used for detaching and a subcultivation ratio of 1:5 was used.
(§2) The cell viability assay was performed by a typical MTT assay. Briefly, 5*10^3 cells were seeded in the 96-well flat bottom plate and allowed to attach overnight. After drug treatment with a serial dilution from 100 μM for 48 h, 10 μL of MTT solution (5 mg/ml prepared in PBS, filtered) was added into each well and incubate for 4 h at 37° C. The formed formazan was then dissolved with SDS solution (10% SDS in 10 mM HCl) and followed the determination of absorbance at 590 nm by a microplate reader. The change in cell viability was then calculated for each drug concentration, then normalized to control. Dose response curves from each assay were fit to a Boltzmann sigmoidal function (GraphPad Prism8, version8.0.0). The cytotoxicity of AGB and its derivatives was determined by the calculation of IC50 value (half maximal inhibitory concentration) from fitted curves, which was the concentration of drug induced 50% cell viability.

[3] = test system: H460 cell line; experiment: MTT cell viability assay; assay type: cell-based, human; conditions: Homo sapiens, NCI-H460
Protocol: as §1, §2

[4] = test system: HeLa cell line; experiment: MTT cell viability assay; assay type: cell-based, human; conditions: Homo sapiens, HeLa; MTT method, 48 h; read-out: IC50 HeLa cell line
Protocol: as §1, §2

[5] = test system: MDA-MB-231 cell line; experiment: MTT cell viability assay; assay type: cell-based, human; conditions: Homo sapiens, MDA-MB-231; MTT method, 48 h
Protocol: as §1, §2

[6] = test system: patient-derived organoids (PDOs) from a lung cancer patient's metastatic tumor; experiment: Patient-derived organoid viability (CellTiter Glo); assay type: cell-based, human; design: viability of PDO: dose or concentration left out as unconfirmed; conditions: 72 h
Protocol: FIG. 1A is a bar graph showing the IC50 values of AGB against indicated cell lines. Cells were treated with AGB at various concentrations for 48 h and processed for MTT assay. The IC50 values were half maximal inhibitory concentration that determined by the fitting curve using the equation from GraphPad Prism 8. FIG. 1B is a bar graph showing the inhibition of colony formation on NCI-H460 cells by AGB. Cells were treated with indicated concentrations of AGB for 8 h. Medium with AGB was then aspirated and cells were re-seeded into a new 12-well cell culture plate. After 14 days, cells were fixed by ethanol followed by staining using crystal violet. Colony numbers were counted and normalized to vehicle control group. Colonies with more than 50 cells were considered. **, p<0.01; ***, p<0.001. […] The numbers of formed tumorsphere were calculated and normalized to the control group of primary passage. […] FIG. 1E is a graph showing the cell viability of CSCs determined by MTT assay. The absorbance of each well was normalized to control wells and data were shown as percentage of cell viabilities. […]
To better simulate the physiological structure and function of in situ tissue, the effect of AGB on the growth of patient-derived organoids (PDOs) isolated from a lung cancer patient's metastatic tumor was evaluated.

[7] = target: T1, HSP60 (Homo sapiens, UniProt P10809); experiment: MDH refolding assay (chaperone function); assay type: biochemical; conditions: pre-incubation of Hsp60 with AGB
T1 sequence (P10809 27-573): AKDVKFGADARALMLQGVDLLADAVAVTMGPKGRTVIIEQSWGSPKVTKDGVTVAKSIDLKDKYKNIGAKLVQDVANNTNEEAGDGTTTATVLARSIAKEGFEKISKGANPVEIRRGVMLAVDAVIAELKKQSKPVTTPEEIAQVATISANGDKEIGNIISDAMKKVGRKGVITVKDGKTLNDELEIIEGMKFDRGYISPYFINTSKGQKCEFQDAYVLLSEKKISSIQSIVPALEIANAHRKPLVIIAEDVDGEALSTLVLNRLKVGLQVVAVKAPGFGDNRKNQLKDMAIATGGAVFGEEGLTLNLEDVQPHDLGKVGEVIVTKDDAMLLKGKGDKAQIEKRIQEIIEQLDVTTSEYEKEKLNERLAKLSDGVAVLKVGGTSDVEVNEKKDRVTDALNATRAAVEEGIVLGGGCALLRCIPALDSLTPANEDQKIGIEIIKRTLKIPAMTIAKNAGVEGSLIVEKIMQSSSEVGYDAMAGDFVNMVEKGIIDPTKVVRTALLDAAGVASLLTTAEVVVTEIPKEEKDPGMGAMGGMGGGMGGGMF
Description: The function of HSP60 is mainly for its chaperone activity. HSP60 cooperates with co-chaperonin HSP10 to perform the misfolded proteins refolding and reactivate. Mitochondrial malate dehydrogenase (MDH), one of HSP60 substrates, was examined for the inhibition of chaperone function by AGB.

[8] = target: T1, HSP60; experiment: CETSA / ITDRFCETSA immunoblot; assay type: binding; design: dose dependent recovery of soluble HSP60 in cells subjected to heating; endogenous in cells; host or cells: NCI-H460; conditions: CETSA melt curve, NCI-H460 cells
Protocol: Immunoblot experiments were carried out for validating of the three identified potential targets. […] In the isothermal dose-response fingerprint (ITDRFCETSA) experiment, treatment of cells with increasing concentrations of AGB led to dose dependent recovery of soluble HSP60 in cells subjected to heating at protein denaturation temperature at 60° C.

CCCC(=O)c1c(O)c(Cc2c(O)c(Cc3c(O)c(C)c(OC)c(C(=O)CCC)c3O)c(O)c(C(=O)[C@@H](C)CC)c2O)c(O)c(C)c1OC [AGB, Agrimol B]
IC50 [1]: 31100 nM
IC50 [2]: 2650 nM
IC50 ([3]; MTT method, 48 h, read-out: IC50 H460 cell line): 1850 nM
IC50 ([3]; for 48 h, cell line not given, read-out: IC50 value of AGB): 2300 nM
IC50 [4]: 810 nM
IC50 [5]: 2160 nM
viability of PDO ([6]; AGB, concentration dependent): Significant inhibition of viability
maximal viability loss ([6]; PDO): over 99%
MDH refolding activities [7]: concentration-dependent inhibition
increase in the protein melting temperature (Tm) vs DMSO control [8]: 3.2 °C

Source: US20250162973A1, “METHODS OF SYNTHESIS AND USES OF AGRIMOL COMPOUNDS” (Versitech Limited, priority 2022, published 2025)
